Data: patent US9714240B2 (PharmAkea, Inc., priority 2013, dated 2017)

What follows are molecules tested against T1, human autotaxin (Homo sapiens, UniProt Q13822) (assay: Human Autotaxin Assay (choline release from LPC)). Conditions: ATX in concentrated conditioned media from Hep3B cells, substrate LPC 14:0 100 uM, absorbance at 555 nm.
T1 construct: Conditioned media is collected from confluent Hep3B cells and concentrated 20-fold; endogenous in cells; host or cells: Hep3B human hepatocellular carcinoma cells (concentrated conditioned medium)
Assay type: biochemical
Method: ATX activity is assayed in concentrated conditioned media from Hep3B human hepatocellular carcinoma cells by measuring the amount of choline released from the substrate, lysophosphatidylcholine (LPC) as it is cleaved to LPA. Conditioned media is collected from confluent Hep3B cells and concentrated 20-fold using Centriprep-30 filter devices (Millipore). To assay for autotaxin inhibition, 10-20 μL of the concentrated conditioned media is incubated with 2.5 μL of a test compound in DMSO and 72.5-82.5 μL lyso-PLD buffer (100 mM Tris pH 9, 500 mM NaCl, 5 mM MgCl2, 5 mM CaCl2, 0.05% Triton X-100 in the presence or absence of 0.2% fatty-acid-free human serum albumin) for 15 min at 37° C. After the 15 min incubation, 5 ul of 2 mM LPC (14:0; Avanti Polar Lipids Cat#855575C) diluted in lyso-PLD buffer is added for a final concentration of 100 uM and the incubation continues for 1.5-3 hours at 37° C. 100 μl of a color mix containing 4.5 mM 4-aminoantipyrine, 2.7 mM N-ethyl-N-(2-hydroxy-3-sulfopropyl)-m-toluidine, 21 units/ml horseradish peroxidase and 3 units/ml choline oxidase in 50 mM Tris, pH 8, 4.5 mM MgCl2 is added and the incubation continued for 15 minutes at room temperature before reading the absorbance at 555 nm.
In the case of `N#C/C(=C\c1cn(Cc2ccc(F)cc2)c2cc(C(F)(F)F)ccc12)c1ccc(C(=O)O)cc1` [Compound 1-9, 4-[(Z)-1-cyano-2-[1-[(4-fluorophenyl)methyl]-6-(trifluoromethyl)indol-3-yl]vinyl]benzoic Acid], the IC50 is reported as 500 to 10000 nM. Work on `N#C/C(=C\c1cn(Cc2ccc(F)cc2)c2cc(Cl)ccc12)c1ccc(CC(=O)O)cc1` [Compound 2-25, (Z)-2-(4-(2-(6-chloro-1-(4-fluorobenzyl)-1H-indol-3-yl)-1-cyanovinyl)phenyl)acetic Acid] yielded an IC50 of at most 500 nM. `N#C/C(=C\c1cn(Cc2ccc(F)cc2)c2c(F)c(Cl)ccc12)c1ccc(C(=O)O)cc1` [Compound 1-49, (Z)-4-(2-(6-chloro-7-fluoro-1-(4-fluorobenzyl)-1H-indol-3-yl)-1-cyanovinyl)benzoic Acid] was tested, and the IC50 was 500 to 10000 nM. `N#C/C(=C\c1cn(Cc2ccc(F)cc2)c2ccc(Cl)cc12)c1ccc(C(=O)O)cc1` [Compound 1-3, 4-[(Z)-2-[5-chloro-1-[(4-fluorophenyl)methyl]indol-3-yl]-1-cyano-vinyl]benzoic Acid] showed an IC50 of over 10000 nM. Work on `N#C/C(=C\c1cn(Cc2ccc(F)cc2)c2cc(Cl)ccc12)c1ccc(C(=O)O)cc1` [Compound 1-4, (Z)-4-(2-(6-chloro-1-(4-fluorobenzyl)-1H-indol-3-yl)-1-cyanovinyl)benzoic Acid] yielded an IC50 of at most 500 nM. `N#C/C(=C\c1cn(Cc2ccccc2)c2cc(Cl)ccc12)c1ccc(C(=O)O)cc1` [Compound 1-13, 4-[(Z)-2-(1-benzyl-6-chloro-indol-3-yl)-1-cyano-vinyl]benzoic Acid] was tested, and the IC50 was 500 to 10000 nM. In the case of `COc1ccc(Cn2cc(/C=C(\C#N)c3ccc(C(=O)O)nc3)c3ccc(Cl)cc32)cn1` [Compound 2-3, 5-[(Z)-2-[6-chloro-1-[(6-methoxy-3-pyridyl)methyl]indol-3-yl]-1-cyano-vinyl]pyridine-2-carboxylic Acid], the IC50 is reported as at most 500 nM. `N#C/C(=C\c1cn(Cc2ccc(C(F)(F)F)nc2)c2cc(Cl)ccc12)c1ccc(C(=O)O)cc1` [Compound 1-27, 4-[(Z)-2-[6-chloro-1-[[6-(trifluoromethyl)-3-pyridyl]methyl]indol-3-yl]-1-cyano-vinyl]benzoic Acid] was tested, and the IC50 was at most 500 nM. Work on `COc1ccc(Cn2cc(/C=C(\C#N)c3ccc(C(=O)O)cc3)c3ccc(Cl)c(F)c32)cn1` [Compound 1-50] yielded an IC50 of at most 500 nM. `CS(=O)(=O)c1ccc2c(/C=C(\C#N)c3ccc(C(=O)O)cc3)cn(Cc3ccc(F)cc3)c2c1` [Compound 1-67, (Z)-4-(1-cyano-2-(1-(4-fluorobenzyl)-6-(methylsulfonyl)-1H-indol-3-yl)vinyl)benzoic Acid] showed an IC50 of 500 to 10000 nM. With `CCCc1noc(Cn2cc(/C=C(\C#N)c3ccc(C(=O)O)cc3)c3ccc(Cl)cc32)n1` [Compound 1-18, 4-[(Z)-2-[6-chloro-1-[(3-propyl-1,2,4-oxadiazol-5-yl)methyl]indol-3-yl]-1-cyano-vinyl]benzoic Acid] the IC50 was 500 to 10000 nM. For `N#C/C(=C\c1cn(Cc2ccc(F)cc2)c2ccc(F)cc12)c1ccc(C(=O)O)cc1` [Compound 1-6, 4-[(Z)-1-cyano-2-[5-fluoro-1-[(4-fluorophenyl)methyl]indol-3-yl]vinyl]benzoic Acid], the IC50 was 500 to 10000 nM. With `COc1ccc(Cn2cc(/C=C(\C#N)c3ccc(C(=O)O)cc3)c3ccc(OC(F)(F)F)cc32)cn1` [Compound 1-76] the IC50 was at most 500 nM. In the case of `CCOc1ncc(Cn2cc(/C=C(\C#N)c3ccc(C(=O)O)cc3)c3ccc(Cl)cc32)s1` [Compound 1-17, 4-[(Z)-2-[6-chloro-1-[(2-ethoxythiazol-5-yl)methyl]indol-3-yl]-1-cyano-vinyl]benzoic Acid], the IC50 is reported as 500 to 10000 nM. `N#C/C(=C\c1cn(Cc2ccc(F)cc2)c2cc(Br)ccc12)c1ccc(C(=O)O)cc1` [Compound 1-8, 4-[(Z)-2-[6-bromo-1-[(4-fluorophenyl)methyl]indol-3-yl]-1-cyano-vinyl]benzoic Acid] gave an IC50 of 500 to 10000 nM. In the case of `COc1ccc2c(/C=C(\C#N)c3ccc(C(=O)O)cc3)cn(Cc3ccc(OC)nc3)c2c1` [Compound 1-29, 4-[(Z)-1-cyano-2-[6-methoxy-1-[(6-methoxy-3-pyridyl)methyl]indol-3-yl]vinyl]benzoic Acid], the IC50 is reported as at most 500 nM.
